# Source: patent US9717722B2, “Methods and agents for treating tyrosinase-positive albinism” (NEW YORK UNIVERSITY, priority 2013, dated 2017)
# How the values were obtained:
# [1] = tested on: Oca2-null (OCA2) melanocytes; test: melanin assay in Oca2-null melanocytes; type: cell-based, mouse; settings: for pigmentation (melanin level) in Oca2-null melanocytes: FIG. 1, harvested after 5 days, relative to DMSO vehicle
# Method: (§1) Oca2-null cells were plated in 60 mm dishes for 24 hours followed by dosing with the indicated compounds. DMSO was used as a vehicle control (to establish the baseline for comparison). Cells were harvested after 5 days. Melanocytes were harvested in extraction buffer (50 mM Tris pH7.5, 2 mM EDTA, 150 mM NaCl) containing 1% Triton X-100 and protease inhibitors (Complete, Roche Indianapolis, Ind.) following two washes with 1× phosphate buffered saline (PBS). The lysate was centrifuged for 30 min at 13,000 rpm in a microfuge. The supernatant was removed and the protein concentration determined using a protein assay kit (BioRad, Richmond, Calif.). Three hundred μl of ethanol:ether (1:1) were added to the pellet, which was then vortexed. After incubation at room temperature for 10 min, the solvent was removed (leaving the melanin behind) and the ethanol:ether wash repeated without vortexing. The melanin was then dissolved in 2 N NaOH, 20% DMSO at 60-70° C. The optical density was determined at 490 nm. The value was normalized to protein concentration in the supernatant and expressed as a ratio of the melanin in the vehicle treated cells.
# (§2) Cells were seeded in six-well plates in triplicate. After 24 hours, each cell line was treated with IBMX, forskolin or rapamycin, in addition, Oca2-null melanocytes were treated with bafilomycin. Plates were incubated for 72 hours. Melanocytes were harvested and a melanin assay performed as described above.
# Oca2-null cells were plated in 60 mm dishes for 24 hours followed by dosing with the indicated compounds. DMSO was used as a vehicle control. […]
# Selected compounds identified in the screen were tested using a traditional melanin assay in order to verify the findings of the screen. […] The supernatant was removed and the protein concentration determined using a protein assay kit (BioRad, Richmond, Calif.). […] The optical density was determined at 490 nm. The value was normalized to protein concentration in the supernatant and expressed as a ratio of the melanin in the untreated cells.
# [2] = tested on: Oca3-null (OCA3) melanocytes; test: melanin assay in Oca3-null melanocytes; type: cell-based, murine; settings: FIG. 2; 72 hours; relative to vehicle
# Method: as §1
# Oca3-null melanocytes were seeded in six-well plates in triplicate. After 24 hours, each cell line was treated with vehicle, chloroquine or rapamycin. Plates were incubated for 72 hours. Melanocytes were harvested and a melanin assay performed as described above.
# [3] = tested on: wildtype (WT) melanocytes; settings: Ni-Komatsu et al. 2008 Mol Pharmacol; cited from earlier work
# melanoma cells = settings: reported previously; by upregulating expression of tyrosinase; cited from earlier work
# wildtype melanocytes = test: toxicity to wildtype melanocytes; type: cell-based; settings: even at nanomolar concentrations
# Oca2-null melanocytes = test: toxicity to Oca2-null melanocytes; type: cell-based, mouse; settings: compared with wildtype melanocytes
# Oca2-null cells = test: 96-well melanin absorbance screen with MTS cell proliferation assay; type: cell-based, mouse; settings: library compounds at 5 and/or 1 μM; bafilomycin A1 as positive control
# Method: The present inventors utilized the chemical genetics approach described herein to identify compounds that can be used to reverse the diminished pigmentation in Oca2-null cells. To this end, they first developed a 96-well assay system for rapid compound screening. Melanocytes were cultured in a 96-well plate in the presence of test compounds. Melanin content was determined by replacing the culture medium with PBS and measuring absorbance at 490 nm.
# Following validation of their assay system, the present inventors performed a screen, treating Oca2-null cells with library compounds at concentrations of 5 and/or 1 μM. Each plate included untreated Oca2-null cells as negative controls and cells treated with bafilomycin A1 as positive controls. Compounds identified as potential hits were then re-screened to verify their ability to promote melanin synthesis in cells lacking functional Oca2 protein.
# [4] = tested on: wildtype (WT) melanocytes; test: melanin assay in wildtype melanocytes; type: cell-based; settings: FIG. 3; 72 hours
# Method: as §2
# Wildtype cells were plated in 24-well plates for 24 hours followed by dosing with the indicated compounds. DMSO was used as a vehicle control. Cells were harvested after 3 days and a melanin assay was performed as described above.
# Selected compounds identified in the screen were tested using a traditional melanin assay in order to verify the findings of the screen. Following 3 (normal melanocytes) or 5 (mutant melanocytes) days of treatment, melanocytes were harvested in extraction buffer (50 mM Tris pH7.5, 2 mM EDTA, 150 mM NaCl) containing 1% Triton X-100 and protease inhibitors (Complete, Roche Indianapolis, Ind.) following two washes with 1× phosphate buffered saline (PBS). The lysate was centrifuged for 30 min at 13,000 rpm in a microfuge. The supernatant was removed and the protein concentration determined using a protein assay kit (BioRad, Richmond, Calif.). […] The optical density was determined at 490 nm. The value was normalized to protein concentration in the supernatant and expressed as a ratio of the melanin in the untreated cells.
smiles,measurement,setting,value
"CCN(CC)CCCC(C)Nc1ccnc2cc(Cl)ccc12 (racemic) [chloroquine, (RS)—N′-(7-chloroquinolin-4-yl)-N,N-diethyl-pentane-1,4-diamine]",pigmentation (melanin level) in Oca2-null melanocytes,[1],increase pigmentation
same,pigmentation (melanin level) in Oca3-null melanocytes,[2],increase pigmentation
same,pigmentation in normal melanocytes,[3],decrease pigmentation
"CO[C@H]1C[C@@H]2CC[C@@H](C)[C@@](O)(O2)C(=O)C(=O)N2CCCC[C@H]2C(=O)O[C@H]([C@H](C)C[C@@H]2CC[C@@H](O)[C@H](OC)C2)CC(=O)[C@H](C)/C=C(\C)[C@@H](O)[C@@H](OC)C(=O)[C@H](C)C[C@H](C)/C=C/C=C/C=C/1C [rapamycin, Rapamycin]",pigmentation (melanin level) in Oca2-null melanocytes,[1],increase pigmentation
same,pigmentation (melanin level) in Oca3-null melanocytes,[2],increase pigmentation
same,pigmentation in melanoma cells,melanoma cells,increase pigmentation
"CO/C1=C\C(C)=C\[C@@H](C)[C@@H](O)[C@@H](C)C/C(C)=C/C=C/[C@H](OC)[C@@H]([C@@H](C)[C@@H](O)[C@H](C)[C@@]2(O)C[C@@H](O)[C@H](C)[C@@H](C(C)C)O2)OC1=O [Bafilomycin, bafilomycin A1]",melanin content of Oca2-null (OCA2) melanocytes,"[1]; FIG. 3, 72 hours",increased the melanin content
same,toxicity to wildtype melanocytes,wildtype melanocytes,highly toxic
same,accompanying toxicity in Oca2-null melanocytes,Oca2-null melanocytes,much less accompanying toxicity
same,pigmentation of Oca2-null cells in 96-well screen,Oca2-null cells,reverses the pigmentation phenotype
"CC(C)Cn1c(=O)n(C)c(=O)c2[nH]cnc21 [IBMX, 3-isobutyl-1-methylxanthine]",melanin content of wildtype (WT) melanocytes,[4],effective in increasing the melanin content
